From patent publication US11865126B2, “Method for treating anxiety disorders, headache disorders, and eating disorders with psilocybin” (priority 2019, dated 2024)

Assays:
healthy subjects [1] = assay: NEO-Five Factor Inventory (NEO-FFI); type: in vivo, human
Experimental: In some embodiments, the NEO-Five Factor Inventory (NEO-FFI) test is used to evaluate the safety and/or efficacy of psilocybin. The NEO-FFI evaluates 5 broad domains of personality—Neuroticism, Extroversion, Openness, Agreeableness and Conscientiousness.
The Neuroticism Extraversion Openness-Five Factor Inventory (NEO-FFI) and Symptom Checklist-90 Item (SCL-90) were administered. Details of the MMRM applied to the change from baseline scores for the NEO-FFI and SCL-90 are provided below in Table 28.

healthy subjects [2] = assay: Scale of Social Responsibility (SSR); type: in vivo, human
Experimental: In some embodiments, the Scale of Social Responsibility (SSR) is utilized to evaluate the safety and/or efficacy of psilocybin. The SSR measures perceptions regarding the importance of ethics and social responsibility.
The following list of outcome measures are non-exhaustive. • a. The short-term change from Baseline (Day −1 [Visit 2]) to Day 7 (Visit 5) in cognitive measures of attention, spatial and working memory and executive function was measured by a composite score of the CANTAB Panel (Spatial Working Memory [SWM], Rapid Visual Information Processing [RVP], Paired Associates Learning [PAL]). • b. The short-term change from Baseline (Day −1 [Visit 2]) to Day 7 (Visit 5) in Social Cognition Panel scales (Pictorial Empathy Test [PET], Reading the Mind in the Eyes Test [RMET], Toronto Empathy Questionnaire [TEQ], Social Value Orientation [SVO], Scale of Social Responsibility [SSR]). • c. The change from Baseline (Day −1 [Visit 2]) to Day 28 (Visit 6) in cognitive measures of attention, spatial and working memory and executive function as measured by a composite score of the CANTAB Panel (SWM, RVP, PAL). • d. The long-term change from Baseline (Day −1 [Visit 2]) to Day 84 (Visit 7) in Social Cognition Panel scales (PET, RMET, TEQ, SVO, SSR). • e. Dose-related differences between cognitive effects of psilocybin at Baseline (Day −1 [Visit 2]), Day 7 (Visit 5) and Day 28 (Visit 6), as measured by a composite score of the CANTAB Panel (SWM, RVP, PAL). • f. Dose-related differences between psychological effects of psilocybin at Baseline (Day −1 [Visit 2]), Day 7 (Visit 5) and Day 84 (Visit 7), as measured by Social Cognition Panel scales (PET, RMET, TEQ, SVO, SSR). • g. Differences in cognitive effects of psilocybin between psilocybin-naïve and experienced subjects at Baseline (Day −1 [Visit 2]), Day 7 (Visit 5) and Day 28 (Visit 6), as measured by a composite score of the CANTAB Panel (SWM, RVP, PAL). • h. Differences in Positive and Negative Affect Schedule (PANAS) after study drug administration on Day 0 (Visit 3). • i. Differences between psilocybin and placebo in the Emotion Recognition Test (ERT), Intra-Extra Dimensional Set Shift (IED), One Touch Stockings (OTS), Verbal Fluency and Digit Span Forward at Day 7 (Visit 5). • j. A composite score of the CANTAB Panel, including the following tests: • i. Spatial Working Memory (SWM) (performed at Visit 2, Visit 5, and Visit 6). • ii. Rapid Visual Information Processing (RVP) (performed at Visit 2, Visit 5, and Visit 6). • iii. Paired Associates Learning (PAL) (performed at Visit 2, Visit 5, and Visit 6). • k. Cognitive Flexibility Panel • i. Emotion Recognition Task (ERT) (performed at Visit 5). • ii. Intra-Extra Dimensional Set Shift (IED) (performed at Visit 5). • iii. One Touch Stockings (OTS) (performed at Visit 5). • iv. Verbal Fluency (performed at Visit 5). • v. Digit Span Forward (performed at Visit 5). • l. Five Dimension Altered States of Consciousness questionnaire (5D-ASC) (performed at Visit 3). • m. PANAS (performed at Visit 2 and Visit 3). • n. NEO-Five Factor Inventory (NEO-FFI) (performed at Visit 2, Visit 5, and Visit 7). • o. Symptom Checklist-90 item (SCL-90) (performed at Visit 2, Visit 5, and Visit 7). • p. Life Changes Inventory (LCI): The LCI measures changes in attitudes and values after near-death experiences often used to evaluate personal transformation following spiritually oriented experiences and practices. (performed at Visit 5 and Visit 7). • q. Social Cognition Panel scales • i. Pictorial Empathy Test (PET) (performed at Visit 2, Visit 5, and Visit 7). • ii. Reading the Mind in the Eyes Test (RMET) (performed at Visit 2, Visit 5, and Visit 7). • iii. Social Value Orientation (SVO) (performed at Visit 2, Visit 5, and Visit 7). • iv. Toronto Empathy Questionnaire (TEQ) (performed at Visit 2, Visit 5, and Visit 7). • v. Scale of Social Responsibility (SSR) (performed at Visit 2, Visit 5, and Visit 7). • r. Sheehan Suicidality Tracking Scale (SSTS) • s. […]

For `CN(C)CCc1c[nH]c2cccc(OP(=O)(O)O)c12` [psilocybin], the “NEO agreeableness change from baseline, difference Psilocybin 10 mg - Placebo” value (healthy subjects [1]; Day 7) was −0.4, the “NEO agreeableness change from baseline, difference Psilocybin 25 mg - Placebo” value (healthy subjects [1]; Day 7) was −0.1 and the “NEO agreeableness change from baseline, difference Psilocybin (25 mg-10 mg)” value (healthy subjects [1]; Day 7) was 0.4. The “NEO conscientiousness change from baseline, difference Psilocybin 10 mg - Placebo” value (healthy subjects [1]; Day 7) was 0.4, the “NEO conscientiousness change from baseline, difference Psilocybin 25 mg - Placebo” value (healthy subjects [1]; Day 7) was 0.7 and the “NEO conscientiousness change from baseline, difference Psilocybin (25 mg-10 mg)” value (healthy subjects [1]; Day 7) was 0.3. For the same compound, the “NEO extraversion change from baseline, difference Psilocybin 10 mg - Placebo” value (healthy subjects [1]; Day 7) was 0.4, the “NEO extraversion change from baseline, difference Psilocybin 25 mg - Placebo” value (healthy subjects [1]; Day 7) was 0.5 and the “NEO extraversion change from baseline, difference Psilocybin (25 mg-10 mg)” value (healthy subjects [1]; Day 7) was 0.1. The “NEO neuroticism change from baseline, difference Psilocybin 10 mg - Placebo” value (healthy subjects [1]; Day 7) was −0.2, the “NEO neuroticism change from baseline, difference Psilocybin 25 mg - Placebo” value (healthy subjects [1]; Day 7) was 0.2 and the “NEO neuroticism change from baseline, difference Psilocybin (25 mg-10 mg)” value (healthy subjects [1]; Day 7) was −0.0. The “NEO openness change from baseline, difference Psilocybin 10 mg - Placebo” value (healthy subjects [1]; Day 7) was 1.1, the “NEO openness change from baseline, difference Psilocybin 25 mg - Placebo” value (healthy subjects [1]; Day 7) was 1.2 and the “NEO openness change from baseline, difference Psilocybin (25 mg-10 mg)” value (healthy subjects [1]; Day 7) was 0.1. The “NEO agreeableness change from baseline, difference Psilocybin 10 mg - Placebo” value (healthy subjects [1]; Day 84) was −0.8, the “NEO agreeableness change from baseline, difference Psilocybin 25 mg - Placebo” value (healthy subjects [1]; Day 84) was −0.7 and the “NEO agreeableness change from baseline, difference Psilocybin (25 mg-10 mg)” value (healthy subjects [1]; Day 84) was 0.1. For the same compound, the “NEO conscientiousness change from baseline, difference Psilocybin 10 mg - Placebo” value (healthy subjects [1]; Day 84) was 0.2, the “NEO conscientiousness change from baseline, difference Psilocybin 25 mg - Placebo” value (healthy subjects [1]; Day 84) was 1.4 and the “NEO conscientiousness change from baseline, difference Psilocybin (25 mg-10 mg)” value (healthy subjects [1]; Day 84) was 1.2. The “NEO extraversion change from baseline, difference Psilocybin 10 mg - Placebo” value (healthy subjects [1]; Day 84) was −0.7, the “NEO extraversion change from baseline, difference Psilocybin 25 mg - Placebo” value (healthy subjects [1]; Day 84) was −0.5 and the “NEO extraversion change from baseline, difference Psilocybin (25 mg-10 mg)” value (healthy subjects [1]; Day 84) was 0.2. For the same compound, the “NEO neuroticism change from baseline, difference Psilocybin 10 mg - Placebo” value (healthy subjects [1]; Day 84) was 0.3, the “NEO neuroticism change from baseline, difference Psilocybin 25 mg - Placebo” value (healthy subjects [1]; Day 84) was −1.0 and the “NEO neuroticism change from baseline, difference Psilocybin (25 mg-10 mg)” value (healthy subjects [1]; Day 84) was −1.3. The “NEO openness change from baseline, difference Psilocybin 10 mg - Placebo” value (healthy subjects [1]; Day 84) was 1.1, the “NEO openness change from baseline, difference Psilocybin 25 mg - Placebo” value (healthy subjects [1]; Day 84) was 0.4 and the “NEO openness change from baseline, difference Psilocybin (25 mg-10 mg)” value (healthy subjects [1]; Day 84) was −0.7. The “SSR compliance social rules change from baseline, LS mean difference Psilocybin 10 mg - Placebo” value (healthy subjects [2]; Day 7, MMRM) was 0.0, the “SSR compliance social rules change from baseline, LS mean difference Psilocybin 25 mg - Placebo” value (healthy subjects [2]; Day 7, MMRM) was 0.1 and the “SSR compliance social rules change from baseline, LS mean difference Psilocybin 25 mg-10 mg” value (healthy subjects [2]; Day 7, MMRM) was 0.1. For the same compound, the “SSR fulfilling expectations change from baseline, LS mean difference Psilocybin 10 mg - Placebo” value (healthy subjects [2]; Day 7, MMRM) was 0.1, the “SSR fulfilling expectations change from baseline, LS mean difference Psilocybin 25 mg - Placebo” value (healthy subjects [2]; Day 7, MMRM) was 0.2 and the “SSR fulfilling expectations change from baseline, LS mean difference Psilocybin 25 mg-10 mg” value (healthy subjects [2]; Day 7, MMRM) was 0.1. For the same compound, the “SSR global change from baseline, LS mean difference Psilocybin 10 mg - Placebo” value (healthy subjects [2]; Day 7, MMRM) was 1.2, the “SSR global change from baseline, LS mean difference Psilocybin 25 mg - Placebo” value (healthy subjects [2]; Day 7, MMRM) was 2.8 and the “SSR global change from baseline, LS mean difference Psilocybin 25 mg-10 mg” value (healthy subjects [2]; Day 7, MMRM) was 1.6. The “SSR compliance social rules change from baseline, LS mean difference Psilocybin 10 mg - Placebo” value (healthy subjects [2]; Day 84, MMRM) was −0.0, the “SSR compliance social rules change from baseline, LS mean difference Psilocybin 25 mg - Placebo” value (healthy subjects [2]; Day 84, MMRM) was 0.1 and the “SSR compliance social rules change from baseline, LS mean difference Psilocybin 25 mg-10 mg” value (healthy subjects [2]; Day 84, MMRM) was 0.1. For the same compound, the “SSR fulfilling expectations change from baseline, LS mean difference Psilocybin 10 mg - Placebo” value (healthy subjects [2]; Day 84, MMRM) was −0.1, the “SSR fulfilling expectations change from baseline, LS mean difference Psilocybin 25 mg - Placebo” value (healthy subjects [2]; Day 84, MMRM) was 0.0 and the “SSR fulfilling expectations change from baseline, LS mean difference Psilocybin 25 mg-10 mg” value (healthy subjects [2]; Day 84, MMRM) was 0.2. For the same compound, the “SSR global change from baseline, LS mean difference Psilocybin 10 mg - Placebo” value (healthy subjects [2]; Day 84, MMRM) was 0.3, the “SSR global change from baseline, LS mean difference Psilocybin 25 mg - Placebo” value (healthy subjects [2]; Day 84, MMRM) was 2.2 and the “SSR global change from baseline, LS mean difference Psilocybin 25 mg-10 mg” value (healthy subjects [2]; Day 84, MMRM) was 1.8. The “SSR fulfilling expectations change from baseline, LS mean” value (healthy subjects [2]; Psilocybin 10 mg, Day 7, MMRM) was −0.1, the “SSR fulfilling expectations change from baseline, LS mean” value (healthy subjects [2]; Psilocybin 10 mg, Day 84, MMRM) was 0.2 and the “SSR fulfilling expectations change from baseline, LS mean” value (healthy subjects [2]; Psilocybin 25 mg, Day 7, MMRM) was −0.0. For the same compound, the “SSR fulfilling expectations change from baseline, LS mean” value (healthy subjects [2]; Psilocybin 25 mg, Day 84, MMRM) was −0.0.
